In patent US4110327A, “2,3 Diketo-piperazinocarbonylamino alkanoic acids and derivatives” (Toyama Chemical Co., Ltd., priority 1974, dated 1978):
In brackets after ≈: the same amount, converted by molar mass.

Columns and labels:
Format in all cases: cell-based
Escherichia coli NIHJ = assay: MIC against standard strain, plate method; conditions: unit assumed
Description: (§1) The minimum inhibitory concentrations (MIC) was determined by the plate method disclosed in "Chemotherapy" (Japan), Vol. 16, (1968), pages 98 - 99. The culture medium used was a Heart infusion agar (pH 7.4). The number of the cells per plate used in the inoculum as 10^4 (10^6 cells/ml).

Klebsiella pneumoniae [1] = assay: MIC against standard strain, plate method; conditions: unit assumed
Description: as §1

Proteus vulgaris 3027 = assay: MIC against standard strain, plate method; conditions: Proteus vulgaris 3027, standard strain; unit assumed
Description: as §1

[2] = test system: Pseudomonas aeruginosa I.F.O.; assay: MIC against standard strain, plate method; conditions: unit assumed
Description: as §1

[3] = test system: Staphylococcus aureus 209p; assay: MIC against standard strain, plate method; conditions: unit assumed
Description: as §1

Staphylococcus aureus = assay: MIC against clinical isolates; conditions: unit assumed
Pseudomonas aeruginosa = assay: MIC against clinical isolates; conditions: unit assumed
Klebsiella pneumoniae [4] = assay: MIC against clinical isolates; conditions: unit assumed
Escherichia coli = assay: MIC against clinical isolates; conditions: unit assumed

Q: How did the MIC (Escherichia coli NIHJ) turn out when `CN1CCN(C(=O)N[C@@H](C(=O)N[C@@H]2C(=O)N3C(C(=O)[O-])=C(C[n+]4ccccc4)CS[C@H]23)c2ccccc2)C(=O)C1=O` [compound 68] was run?
A: < 0.79 µg/mL

Q: And the MIC (Klebsiella pneumoniae [1])?
A: < 0.79 µg/mL

Q: What about the MIC (Proteus vulgaris 3027) of the same compound?
A: 1.57 µg/mL (≈ 2.71 µM)

Q: And the MIC [2]?
A: 12.5 µg/mL (≈ 21.6 µM)

Q: What about the MIC [3] of the same compound?
A: 1.57 µg/mL (≈ 2.71 µM)

Q: And the MIC (Staphylococcus aureus; clinical isolate F-1)?
A: 1.56 µg/mL (≈ 2.7 µM)

Q: What about the MIC (Staphylococcus aureus; clinical isolate F-2) of the same compound?
A: 1.56 µg/mL (≈ 2.7 µM)

Q: And the MIC (Staphylococcus aureus; clinical isolate F-3)?
A: 0.78 µg/mL (≈ 1.35 µM)

Q: And the MIC (Staphylococcus aureus; clinical isolate F-4)?
A: 6.25 µg/mL (≈ 10.8 µM)

Q: And the MIC (Staphylococcus aureus; clinical isolate F-5)?
A: 0.78 µg/mL (≈ 1.35 µM)

Q: And the MIC (Staphylococcus aureus; clinical isolate MS 8588)?
A: 1.56 µg/mL (≈ 2.7 µM)

Q: And the MIC (Staphylococcus aureus; clinical isolate MS 8596)?
A: 1.56 µg/mL (≈ 2.7 µM)

Q: And the MIC (Staphylococcus aureus; clinical isolate MS 8619)?
A: 0.78 µg/mL (≈ 1.35 µM)

Q: And the MIC (Staphylococcus aureus; clinical isolate MS 8684)?
A: 1.56 µg/mL (≈ 2.7 µM)

Q: What about the MIC (Staphylococcus aureus; clinical isolate MS 8713) of the same compound?
A: 3.13 µg/mL (≈ 5.41 µM)

Q: And the MIC (Pseudomonas aeruginosa; clinical isolate GN 82)?
A: 6.25 µg/mL (≈ 10.8 µM)

Q: And the MIC (Pseudomonas aeruginosa; clinical isolate GN 163)?
A: 12.5 µg/mL (≈ 21.6 µM)

Q: What about the MIC (Pseudomonas aeruginosa; clinical isolate GN 221) of the same compound?
A: 3.13 µg/mL (≈ 5.41 µM)

Q: What about the MIC (Pseudomonas aeruginosa; clinical isolate GN 244) of the same compound?
A: 25 µg/mL (≈ 43.2 µM)

Q: And the MIC (Pseudomonas aeruginosa; clinical isolate GN 376)?
A: 12.5 µg/mL (≈ 21.6 µM)

Q: What about the MIC (Pseudomonas aeruginosa; clinical isolate GN 383) of the same compound?
A: 12.5 µg/mL (≈ 21.6 µM)

Q: And the MIC (Pseudomonas aeruginosa; clinical isolate GN 1035)?
A: 50 µg/mL (≈ 86.4 µM)

Q: What about the MIC (Pseudomonas aeruginosa; clinical isolate GN 1091) of the same compound?
A: 12.5 µg/mL (≈ 21.6 µM)

Q: And the MIC (Pseudomonas aeruginosa; clinical isolate GN 2565)?
A: 50 µg/mL (≈ 86.4 µM)

Q: And the MIC (Pseudomonas aeruginosa; clinical isolate GN 2987)?
A: 12.5 µg/mL (≈ 21.6 µM)

Q: What about the MIC (Pseudomonas aeruginosa; clinical isolate S-1) of the same compound?
A: 25 µg/mL (≈ 43.2 µM)

Q: What about the MIC (Pseudomonas aeruginosa; clinical isolate S-2) of the same compound?
A: 25 µg/mL (≈ 43.2 µM)

Q: What about the MIC (Pseudomonas aeruginosa; clinical isolate S-3) of the same compound?
A: 25 µg/mL (≈ 43.2 µM)

Q: What about the MIC (Pseudomonas aeruginosa; clinical isolate S-4) of the same compound?
A: 25 µg/mL (≈ 43.2 µM)

Q: And the MIC (Klebsiella pneumoniae [4]; clinical isolate GN 917)?
A: 1.56 µg/mL (≈ 2.7 µM)

Q: How did the MIC (Escherichia coli NIHJ) turn out when `CC(=O)OCC1=C(C(=O)O)N2C(=O)[C@@H](NC(=O)Cc3cccs3)[C@H]2SC1` [Sodium Cephalothin, SodiumCephalothin, reference compound] was run?
A: < 1.57 µg/mL

Q: What about the MIC (Klebsiella pneumoniae [1]) of the same compound?
A: 100 µg/mL

Q: And the MIC (Proteus vulgaris 3027)?
A: < 1.57 µg/mL

Q: And the MIC [2]?
A: > 200 µg/mL

Q: What about the MIC [3] of the same compound?
A: < 1.57 µg/mL

Q: What about the MIC (Staphylococcus aureus; clinical isolate F-1) of the same compound?
A: < 0.4 µg/mL

Q: What about the MIC (Staphylococcus aureus; clinical isolate F-2) of the same compound?
A: < 0.4 µg/mL

Q: And the MIC (Staphylococcus aureus; clinical isolate F-3)?
A: < 0.4 µg/mL

Q: And the MIC (Staphylococcus aureus; clinical isolate F-4)?
A: < 0.4 µg/mL

Q: What about the MIC (Staphylococcus aureus; clinical isolate F-5) of the same compound?
A: 1.56 µg/mL

Q: What about the MIC (Staphylococcus aureus; clinical isolate MS 8588) of the same compound?
A: < 0.4 µg/mL

Q: What about the MIC (Staphylococcus aureus; clinical isolate MS 8596) of the same compound?
A: < 0.4 µg/mL

Q: What about the MIC (Staphylococcus aureus; clinical isolate MS 8619) of the same compound?
A: < 0.4 µg/mL

Q: What about the MIC (Staphylococcus aureus; clinical isolate MS 8684) of the same compound?
A: < 0.4 µg/mL

Q: And the MIC (Staphylococcus aureus; clinical isolate MS 8713)?
A: < 0.4 µg/mL

Q: And the MIC (Escherichia coli; clinical isolate GN 3435)?
A: 6.25 µg/mL

Q: What about the MIC (Escherichia coli; clinical isolate GN 3452) of the same compound?
A: 12.5 µg/mL

Q: What about the MIC (Escherichia coli; clinical isolate GN 3465) of the same compound?
A: 25 µg/mL

Q: What about the MIC (Escherichia coli; clinical isolate GN 3481) of the same compound?
A: 12.5 µg/mL

Q: And the MIC (Escherichia coli; clinical isolate GN 3611)?
A: 50 µg/mL

Q: And the MIC (Escherichia coli; clinical isolate K-1)?
A: 6.25 µg/mL

Q: And the MIC (Escherichia coli; clinical isolate K-2)?
A: 6.25 µg/mL

Q: What about the MIC (Escherichia coli; clinical isolate K-3) of the same compound?
A: 100 µg/mL

Q: And the MIC (Escherichia coli; clinical isolate K-4)?
A: 25 µg/mL

Q: And the MIC (Pseudomonas aeruginosa; clinical isolate GN 82)?
A: > 200 µg/mL

Q: What about the MIC (Pseudomonas aeruginosa; clinical isolate GN 163) of the same compound?
A: > 200 µg/mL

Q: And the MIC (Pseudomonas aeruginosa; clinical isolate GN 221)?
A: > 200 µg/mL

Q: What about the MIC (Pseudomonas aeruginosa; clinical isolate GN 244) of the same compound?
A: > 200 µg/mL

Q: What about the MIC (Pseudomonas aeruginosa; clinical isolate GN 376) of the same compound?
A: > 200 µg/mL

Q: And the MIC (Pseudomonas aeruginosa; clinical isolate GN 383)?
A: > 200 µg/mL

Q: And the MIC (Pseudomonas aeruginosa; clinical isolate GN 1035)?
A: > 200 µg/mL

Q: And the MIC (Pseudomonas aeruginosa; clinical isolate GN 1091)?
A: > 200 µg/mL

Q: And the MIC (Pseudomonas aeruginosa; clinical isolate GN 2565)?
A: > 200 µg/mL

Q: And the MIC (Pseudomonas aeruginosa; clinical isolate GN 2987)?
A: > 200 µg/mL

Q: What about the MIC (Pseudomonas aeruginosa; clinical isolate S-1) of the same compound?
A: > 200 µg/mL

Q: And the MIC (Pseudomonas aeruginosa; clinical isolate S-2)?
A: > 200 µg/mL

Q: And the MIC (Pseudomonas aeruginosa; clinical isolate S-3)?
A: > 200 µg/mL

Q: And the MIC (Pseudomonas aeruginosa; clinical isolate S-4)?
A: > 200 µg/mL

Q: And the MIC (Klebsiella pneumoniae [4]; clinical isolate GN 917)?
A: 3.13 µg/mL

Q: And the MIC (Klebsiella pneumoniae [4]; clinical isolate GN 4081)?
A: 12.5 µg/mL

Q: What about the MIC (Klebsiella pneumoniae [4]; clinical isolate GN 4117) of the same compound?
A: 6.25 µg/mL

Q: Which results are given for `CC1(C)S[C@@H]2[C@H](NC(=O)[C@H](NC(=O)N3CCN(C(=O)c4ccccc4)CC3=O)c3ccccc3)C(=O)N2[C@H]1C(=O)O` [compound 7]?
A: MIC (Escherichia coli NIHJ): < 1.57 µg/mL; MIC (Klebsiella pneumoniae [1]): 12.5 µg/mL (≈ 21.6 µM); MIC (Proteus vulgaris 3027): 6.25 µg/mL (≈ 10.8 µM); MIC [2]: 200 µg/mL (≈ 345 µM); MIC [3]: < 1.57 µg/mL

Q: How did the MIC (Escherichia coli NIHJ) turn out when `CN1CCN(C(=O)NC(C(=O)NC2C(=O)N3C(C(=O)O)=C(CSc4nncs4)CSC23)c2ccccc2)C(=O)C1=O` (single isomer, unassigned) [compound 64] was run?
A: < 0.1 µg/mL

Q: And the MIC (Klebsiella pneumoniae [1])?
A: 1.57 µg/mL (≈ 2.54 µM)

Q: And the MIC (Proteus vulgaris 3027)?
A: 3.13 µg/mL (≈ 5.07 µM)

Q: And the MIC [2]?
A: 25 µg/mL (≈ 40.5 µM)

Q: What about the MIC [3] of the same compound?
A: 0.79 µg/mL (≈ 1.28 µM)
